Read-outs that look alike come from different tables or passages of the source.
Tests used:
5-HT5A = 5-HT5A (Homo sapiens, UniProt P47898); test: G protein dissociation BRET assay; format: cell-based; conditions: read-out: KB (antagonist), 37°C, 60 minutes
[1] = system: 5-HT1 Gi/o-coupled receptor subtypes; test: G protein dissociation BRET assay; format: cell-based, human
5-HT6 = 5-HT6 (Homo sapiens, UniProt P50406); test: G protein dissociation BRET assay; format: cell-based; conditions: read-out: EC50 (partial agonism)
5-HT4 = 5-HT4 (Homo sapiens, UniProt Q13639); test: G protein dissociation BRET assay; format: cell-based
5-HT7a = 5-HT7a (Homo sapiens, UniProt P34969); test: G protein dissociation BRET assay; format: cell-based
D2 = D2 (Homo sapiens, UniProt P14416); test: G protein dissociation BRET assay; format: cell-based
D4 = D4 (Homo sapiens, UniProt P21917); test: G protein dissociation BRET assay; format: cell-based
D1/5 subtypes = test: G protein dissociation BRET assay; format: cell-based, human
5-HT2A [2] = molecular target: T1, 5-HT2A (Homo sapiens, UniProt P28223); format: cell-based; conditions: Gq dissociation
5-HT2C = 5-HT2C (Homo sapiens, UniProt P28335); format: cell-based; conditions: Gq partial agonism
α1B = α1B (Homo sapiens, UniProt P35368); test: G protein dissociation BRET assay; format: cell-based; conditions: read-out: KB (antagonist)
β2 = β2 (Homo sapiens, UniProt P07550); test: G protein dissociation BRET assay; format: cell-based; conditions: read-out: KB (antagonist)
α2A = α2A (Homo sapiens, UniProt P08913); test: G protein dissociation BRET assay; format: cell-based; conditions: read-out: KB (antagonist)
α2B = α2B (Homo sapiens, UniProt P18089); test: G protein dissociation BRET assay; format: cell-based; conditions: read-out: KB (antagonist)
α2C = α2C (Homo sapiens, UniProt P18825); test: G protein dissociation BRET assay; format: cell-based
H2 = H2 (Homo sapiens, UniProt P25021); test: G protein dissociation BRET assay; format: cell-based
33 human aminergic GPCRs = test: Pan-aminergic GPCR functional screen; format: cell-based; conditions: of 33 aminergic GPCR targets tested
5-HT2A [3] = molecular target: T1, 5-HT2A; format: cell-based; conditions: β-arrestin recruitment, normalized to 5-HT
OCT2 = OCT2 (Homo sapiens, UniProt O15244); test: Transporter panel: OCT2
5-HT1A = 5-HT1A (Homo sapiens, UniProt P08908); test: β-arrestin2 recruitment BRET assay; format: cell-based
5-HT2A [4] = molecular target: T1, 5-HT2A; test: NanoBit HiBiT surface expression/internalization assay; format: cell-based; conditions: 60 minutes of treatment
rat cortical neurons [5] = test: Dendritogenesis; format: cell-based
rat cortical neurons [6] = test: Spinogenesis in cultured cortical neurons; format: cell-based; conditions: 1 and 10 μM, 3 h at DIV18, read 24 h after onset
[7] = system: primary rat cortical neurons; test: Cell viability of primary cortical neurons; format: cell-based; conditions: every tested concentration
Open field test = format: in vivo, C57BL/6J mice; conditions: 24 h after
Forced swim test = format: in vivo, C57BL/6J mice; conditions: 25 h after
[8] = Chronic variable stress: splash test; format: in vivo, female mice; conditions: 1X 3 mg/kg and 4X 1 mg/kg groups
[9] = system: rest of the histamine and muscarinic GPCRs; test: G protein dissociation BRET assay; format: cell-based, human
hERG (KV11.1) channel = hERG (KV11.1) channel (Homo sapiens, UniProt Q12809); conditions: read-out: IC50 (hERG inhibition)
[10] = cited from earlier work
head-twitch response = test: Head-twitch response
[11] = Pharmacokinetics in plasma and brain of mice; conditions: for mean plasma Cmax / Cmax: IP 6.75 mg/kg; for mean terminal T1/2, plasma: range over doses; for Cmax: read-out: mean plasma Cmax
HTR induced by DOI [12] = test: Blockade of DOI-induced head-twitch response; conditions: DOI 1 mg/kg IP
HTR induced by DOI [13] = test: Tolerance to DOI-induced HTR after repeated treatment; conditions: 3 mg/kg/day IP 7 days, DOI 1 mg/kg challenge 24 h later
5-HT2B = 5-HT2B (Homo sapiens, UniProt P41595); test: 5-HT2B Gq dissociation, β-arrestin2 recruitment BRET and calcium flux assays
Chain of 5-HT2B (P41595 whole entry): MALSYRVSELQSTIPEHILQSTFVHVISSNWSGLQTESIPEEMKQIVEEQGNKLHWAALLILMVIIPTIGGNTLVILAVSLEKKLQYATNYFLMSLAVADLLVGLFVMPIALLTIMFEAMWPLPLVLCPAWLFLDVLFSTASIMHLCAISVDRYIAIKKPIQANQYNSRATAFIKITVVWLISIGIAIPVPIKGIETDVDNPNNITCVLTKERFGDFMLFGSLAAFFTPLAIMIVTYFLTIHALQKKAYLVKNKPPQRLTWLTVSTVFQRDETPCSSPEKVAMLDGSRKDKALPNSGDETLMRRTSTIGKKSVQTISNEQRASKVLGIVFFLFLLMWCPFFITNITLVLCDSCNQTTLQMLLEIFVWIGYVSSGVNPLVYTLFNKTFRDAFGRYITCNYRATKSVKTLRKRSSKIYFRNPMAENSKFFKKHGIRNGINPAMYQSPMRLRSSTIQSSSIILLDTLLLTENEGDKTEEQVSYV

T1 sequence (P28223 whole entry): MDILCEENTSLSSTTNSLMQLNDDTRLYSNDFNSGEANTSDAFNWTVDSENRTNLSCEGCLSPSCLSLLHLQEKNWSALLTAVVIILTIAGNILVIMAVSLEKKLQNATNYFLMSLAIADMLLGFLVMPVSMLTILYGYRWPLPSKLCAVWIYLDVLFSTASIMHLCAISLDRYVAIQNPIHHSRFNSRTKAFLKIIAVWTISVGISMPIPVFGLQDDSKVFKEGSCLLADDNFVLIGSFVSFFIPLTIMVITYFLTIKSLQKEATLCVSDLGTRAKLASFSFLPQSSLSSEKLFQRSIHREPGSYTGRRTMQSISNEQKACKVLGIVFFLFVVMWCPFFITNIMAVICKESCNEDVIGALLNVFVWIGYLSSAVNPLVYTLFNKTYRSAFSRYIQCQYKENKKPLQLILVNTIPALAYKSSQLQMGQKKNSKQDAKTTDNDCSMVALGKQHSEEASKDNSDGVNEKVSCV
Chain of α2C (P18825 whole entry): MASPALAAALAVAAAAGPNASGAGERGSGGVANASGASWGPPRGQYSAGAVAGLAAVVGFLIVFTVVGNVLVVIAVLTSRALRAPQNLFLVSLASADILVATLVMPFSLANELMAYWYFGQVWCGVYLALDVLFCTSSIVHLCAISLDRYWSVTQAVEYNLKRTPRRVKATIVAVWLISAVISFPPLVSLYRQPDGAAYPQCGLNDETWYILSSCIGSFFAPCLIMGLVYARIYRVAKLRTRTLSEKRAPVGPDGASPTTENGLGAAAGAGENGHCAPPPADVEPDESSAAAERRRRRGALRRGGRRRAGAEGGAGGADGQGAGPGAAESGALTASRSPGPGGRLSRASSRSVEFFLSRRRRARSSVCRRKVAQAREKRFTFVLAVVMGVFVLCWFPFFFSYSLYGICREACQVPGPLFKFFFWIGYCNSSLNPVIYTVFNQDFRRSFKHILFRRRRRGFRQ
Chain of 5-HT4 (Q13639 whole entry): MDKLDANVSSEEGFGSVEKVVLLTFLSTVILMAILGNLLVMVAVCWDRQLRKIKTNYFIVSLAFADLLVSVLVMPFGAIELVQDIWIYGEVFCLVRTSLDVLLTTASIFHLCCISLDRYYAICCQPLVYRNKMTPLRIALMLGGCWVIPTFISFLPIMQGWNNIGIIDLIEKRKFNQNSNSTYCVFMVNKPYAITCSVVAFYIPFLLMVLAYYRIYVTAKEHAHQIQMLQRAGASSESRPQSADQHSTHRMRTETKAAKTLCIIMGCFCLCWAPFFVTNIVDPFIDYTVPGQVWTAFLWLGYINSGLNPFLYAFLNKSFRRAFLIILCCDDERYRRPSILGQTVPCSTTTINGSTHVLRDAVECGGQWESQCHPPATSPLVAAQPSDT
Chain of 5-HT1A (P08908 whole entry): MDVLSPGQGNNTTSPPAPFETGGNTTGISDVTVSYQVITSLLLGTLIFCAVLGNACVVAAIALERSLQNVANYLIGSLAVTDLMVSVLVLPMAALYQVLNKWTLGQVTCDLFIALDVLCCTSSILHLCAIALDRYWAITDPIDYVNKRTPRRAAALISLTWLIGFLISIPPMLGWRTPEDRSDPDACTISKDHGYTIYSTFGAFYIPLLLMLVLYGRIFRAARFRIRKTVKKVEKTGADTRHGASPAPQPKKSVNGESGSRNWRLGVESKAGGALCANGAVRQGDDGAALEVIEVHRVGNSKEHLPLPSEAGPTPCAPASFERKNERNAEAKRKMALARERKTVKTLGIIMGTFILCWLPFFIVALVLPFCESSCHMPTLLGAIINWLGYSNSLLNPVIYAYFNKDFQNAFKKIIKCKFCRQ
Chain of OCT2 (O15244 whole entry): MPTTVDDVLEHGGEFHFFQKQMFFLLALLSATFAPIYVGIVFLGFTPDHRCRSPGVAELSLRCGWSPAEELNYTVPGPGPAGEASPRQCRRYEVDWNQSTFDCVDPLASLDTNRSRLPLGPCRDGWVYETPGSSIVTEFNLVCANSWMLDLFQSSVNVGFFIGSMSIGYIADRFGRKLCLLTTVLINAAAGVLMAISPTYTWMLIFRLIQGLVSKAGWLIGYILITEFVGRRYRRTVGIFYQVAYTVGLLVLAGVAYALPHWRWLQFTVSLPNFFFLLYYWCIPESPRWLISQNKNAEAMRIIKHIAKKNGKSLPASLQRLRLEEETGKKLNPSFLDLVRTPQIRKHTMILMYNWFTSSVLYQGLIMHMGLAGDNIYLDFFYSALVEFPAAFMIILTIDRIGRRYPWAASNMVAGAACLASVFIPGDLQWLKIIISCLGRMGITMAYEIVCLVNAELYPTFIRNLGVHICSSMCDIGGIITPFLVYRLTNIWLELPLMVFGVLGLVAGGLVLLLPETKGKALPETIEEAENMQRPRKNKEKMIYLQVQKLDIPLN
Chain of α2B (P18089 whole entry): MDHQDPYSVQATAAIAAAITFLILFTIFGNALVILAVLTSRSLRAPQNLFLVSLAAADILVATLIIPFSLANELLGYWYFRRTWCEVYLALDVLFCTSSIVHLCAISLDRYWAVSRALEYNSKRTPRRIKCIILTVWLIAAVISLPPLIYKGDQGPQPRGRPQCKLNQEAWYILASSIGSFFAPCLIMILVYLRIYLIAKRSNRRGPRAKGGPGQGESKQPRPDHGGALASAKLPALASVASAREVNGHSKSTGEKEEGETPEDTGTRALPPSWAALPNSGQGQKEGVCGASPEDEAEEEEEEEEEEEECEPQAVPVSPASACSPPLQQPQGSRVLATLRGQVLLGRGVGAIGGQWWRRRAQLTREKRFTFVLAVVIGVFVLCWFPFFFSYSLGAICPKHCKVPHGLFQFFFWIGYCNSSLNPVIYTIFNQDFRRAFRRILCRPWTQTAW
Chain of α1B (P35368 whole entry): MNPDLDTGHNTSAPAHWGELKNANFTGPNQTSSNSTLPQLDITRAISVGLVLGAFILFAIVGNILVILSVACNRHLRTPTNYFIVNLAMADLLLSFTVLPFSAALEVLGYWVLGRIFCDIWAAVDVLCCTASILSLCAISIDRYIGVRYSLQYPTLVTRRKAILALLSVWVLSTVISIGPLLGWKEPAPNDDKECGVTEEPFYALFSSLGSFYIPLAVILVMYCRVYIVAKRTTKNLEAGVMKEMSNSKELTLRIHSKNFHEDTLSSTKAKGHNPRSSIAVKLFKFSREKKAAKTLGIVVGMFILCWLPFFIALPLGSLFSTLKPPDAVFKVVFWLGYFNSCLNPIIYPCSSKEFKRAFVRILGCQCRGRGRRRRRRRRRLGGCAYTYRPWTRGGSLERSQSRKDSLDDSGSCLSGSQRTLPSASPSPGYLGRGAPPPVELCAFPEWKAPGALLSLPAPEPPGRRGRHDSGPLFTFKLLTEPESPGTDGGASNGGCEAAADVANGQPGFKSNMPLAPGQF
Chain of D4 (P21917 whole entry): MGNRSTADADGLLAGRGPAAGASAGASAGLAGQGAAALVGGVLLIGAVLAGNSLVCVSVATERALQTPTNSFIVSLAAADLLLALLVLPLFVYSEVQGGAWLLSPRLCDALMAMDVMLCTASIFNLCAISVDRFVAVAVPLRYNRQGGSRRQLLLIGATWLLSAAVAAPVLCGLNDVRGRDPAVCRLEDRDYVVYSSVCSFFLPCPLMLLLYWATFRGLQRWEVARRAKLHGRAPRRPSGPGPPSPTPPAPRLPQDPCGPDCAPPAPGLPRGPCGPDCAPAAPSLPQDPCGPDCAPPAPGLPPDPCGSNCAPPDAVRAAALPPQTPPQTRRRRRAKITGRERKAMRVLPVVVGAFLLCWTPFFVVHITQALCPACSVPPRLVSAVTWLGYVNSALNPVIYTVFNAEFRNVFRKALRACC
Chain of D2 (P14416 whole entry): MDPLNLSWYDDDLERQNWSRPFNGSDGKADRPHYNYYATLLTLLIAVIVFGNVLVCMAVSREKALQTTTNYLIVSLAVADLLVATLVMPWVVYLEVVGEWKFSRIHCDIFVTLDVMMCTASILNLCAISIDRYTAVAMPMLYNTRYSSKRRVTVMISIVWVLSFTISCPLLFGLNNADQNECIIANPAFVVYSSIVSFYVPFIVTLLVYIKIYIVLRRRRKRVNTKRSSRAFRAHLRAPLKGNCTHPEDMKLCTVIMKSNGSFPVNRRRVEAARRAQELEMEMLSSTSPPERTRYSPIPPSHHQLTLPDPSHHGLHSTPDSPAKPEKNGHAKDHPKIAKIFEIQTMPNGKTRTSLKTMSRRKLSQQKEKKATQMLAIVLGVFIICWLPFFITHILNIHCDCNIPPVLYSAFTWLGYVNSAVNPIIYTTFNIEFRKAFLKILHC
Chain of 5-HT5A (P47898 whole entry): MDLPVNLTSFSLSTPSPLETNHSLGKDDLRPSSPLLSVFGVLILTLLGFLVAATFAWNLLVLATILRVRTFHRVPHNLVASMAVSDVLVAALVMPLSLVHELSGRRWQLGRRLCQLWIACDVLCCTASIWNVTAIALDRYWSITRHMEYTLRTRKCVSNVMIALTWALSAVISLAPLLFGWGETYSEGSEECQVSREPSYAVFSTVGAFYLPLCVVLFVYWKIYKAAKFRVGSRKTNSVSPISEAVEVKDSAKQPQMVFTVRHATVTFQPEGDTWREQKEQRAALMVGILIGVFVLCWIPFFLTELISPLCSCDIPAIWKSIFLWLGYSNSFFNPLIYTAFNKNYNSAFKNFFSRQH

In the case of `CCN(CC)C(=O)[C@@H]1C=C2c3cccc4[nH]c(Br)c(c34)C[C@H]2N(C)C1.CCN(CC)C(=O)[C@@H]1C=C2c3cccc4[nH]c(Br)c(c34)C[C@H]2N(C)C1.O=C(O)C(O)C(O)C(=O)O` [2-Br-LSD, (6aR,9R)-2-bromolysergic acid diethylamide (2:1) (+)-tartrate], the Kb (5-HT5A) is reported as 4.14 nM, the “agonism at all 5-HT1 subtypes” value [1] is reported as “potent pan-agonism” and the EC50 (5-HT6) is reported as 0.35 nM. The “activity at 5-HT4” value (5-HT4) was “lack potent agonist or antagonist activity”, the “activity at 5-HT7a” value (5-HT7a) was “act as antagonists” and the EC50 (D2) was 0.35 nM. The EC50 (D4) was 1.2 nM, the “agonism at D1/5 subtypes” value (D1/5 subtypes) was “lacks strong agonism” and the EC50 (5-HT2A [2]) was 0.81 nM. It also gave an EMAX (5-HT2A [2]; normalized to 5-HT) of 59.8%, an EMAX (5-HT2C) of 45.8% and a Kb (α1B) of 38 nM. It also gave a Kb (β2) of 47 nM, a Kb (α2A) of 12 nM and a Kb (α2B) of 79 nM. The EC50 (α2C) was 10.4 nM, the EMAX (α2C; partial agonism) was 40.5% and the “agonism at H2” value (H2) was “weak partial agonism”. The “number of aminergic GPCR targets with agonist activity” value (33 human aminergic GPCRs) was 14, the EMAX (5-HT2A [3]) was 36.9% and the IC50 (OCT2) was 500 nM. For the same compound, the β-arrestin2 recruitment agonism (5-HT1A) was “no detectable β-arrestin2 recruitment agonism”, the “5-HT2A internalization (loss of surface expression)” value (5-HT2A [4]) was “partial agonist effect” and the “total length of the dendritic arbor” value (rat cortical neurons [5]; 1 and 10 μM, 3 h at DIV3) was “increased the total length of the dendritic arbor”. The “number of dendrites crossing the Sholl radii” value (rat cortical neurons [5]; 3 h treatment DIV3, read DIV6, maximal at 1 and 10 μM) was “dose-dependent increase”, the spine density (rat cortical neurons [6]) was “spine density increased” and the neuronal viability [7] was “not different from control neurons”. The “locomotion (distance travelled)” value (Open field test; 0.3, 1, 3 mg/kg IP, females and males) was “neither females nor males showed a significant increase in locomotion”, the “increase in time in the arena center” value (Open field test; female mice, 1 mg/kg IP) was 88.18 ± 18.89 s and the “increased exploration of the open field center” value (Open field test; male mice) was “not significant”. The decrease in immobility (Forced swim test; females, 1 mg/kg IP) was 35.18 ± 10.03 s, the decrease in immobility (Forced swim test; males, 0.3 mg/kg IP) was 20.89 ± 8.249 s and the decrease in immobility (Forced swim test; males, 1 mg/kg IP) was 27.27 ± 8.226 s. The decrease in immobility (Forced swim test; males, 3 mg/kg IP) was 31.36 ± 8.226 s, the “self-grooming time in CVS mice” value [8] was “partial reversal of CVS effects” and the “agonism or antagonism at the rest of the histamine and muscarinic GPCRs” value [9] was “neither 2-Br-LSD nor LSD possessed weak agonism or antagonism”. The IC50 (hERG (KV11.1) channel) was 31600 nM, the “side effects in cluster headache patients” value ([10]; 30 μg/kg orally on three occasions) was “only minor side effects” and the “efficacy against cluster headaches” value [10] was “showed efficacy against cluster headaches”. The “subjective effects in humans” value ([10]; intravenous infusion of 18–22 μg/kg) was “more intense effects”, the “subjective effects in humans” value ([10]; oral doses 64–256 μg/kg) was “mild subjective responses” and the “induction of the HTR” value (head-twitch response; 0.1–10 mg/kg IP, male C57BL/6J mice, 60 min) was “did not induce the HTR”. The “induction of the HTR after S-(–)-raclopride pretreatment” value (head-twitch response; raclopride 1 mg/kg, then 2-Br-LSD 3 mg/kg) was “did not induce the HTR”, the “level in the brain” value ([11]; 4 h post-dosing) was “below the lower limit of detection” and the “plasma concentrations, male compared to female mice” value ([11]; IP) was 2–5 x. For the same compound, the “mean plasma Cmax” value ([11]; females) was 826.06 ng/mL, the “mean plasma Cmax” value ([11]; males) was 1558.74 ng/mL and the “mean terminal T1/2, plasma” value ([11]; IP, female mice) was 54 to 156 min. For the same compound, the “mean T1/2 in the brain” value ([11]; IP, females) was 24 to 78 min, the “mean brain Tmax” value ([11]; IP, male and female mice) was 10.2 min and the “mean terminal T1/2, plasma” value ([11]; IP, male mice) was 72 to 84 min. For the same compound, the “mean T1/2 in the brain” value ([11]; IP, males) was 42 to 60 min, the “plasma Tmax” value ([11]; IP, all groups except male mice at 0.75 mg/kg) was 12 min and the “plasma Tmax” value ([11]; IP, male mice, 0.75 mg/kg) was 30 min. For the same compound, the Cmax ([11]; females) was 2100 nM, the Cmax ([11]; males) was 3900 nM and the “time-course of blockade of the response to DOI” value (HTR induced by DOI [12]; 1 mg/kg IP pre-treatment) was “almost completely blocked during the first 10 minutes”. For the same compound, the “attenuation of the response to DOI” value (HTR induced by DOI [12]; 3 mg/kg IP pre-treatment, 30 min) was 76%, the “tolerance on HTR after repeated treatment” value (HTR induced by DOI [13]) was “no tolerance was observed” and the 5-HT2B agonist activity (5-HT2B; Gq dissociation, β-arrestin2 recruitment, Gq-mediated calcium flux) was “failed to induce”. The 5-HT2B antagonist activity (5-HT2B; vs 5-HT) was “potent antagonist activity”.

— paper PMC10112881 (Cell reports, 2023)
